Laboratory results taken from patent publication US9637520B2, “Template-fixed peptidomimetics with CXCR7 modulating activity” (POLYPHOR AG, priority 2010, dated 2017).
Starred links: 1 amine or outer side, 2 acyl side, 3 side chain; linkers in the order of their positions; H or OH if unused. Non-standard residues stand in square brackets, D forms with d. Residues, ends and D or L forms follow the SMILES beside them. *: point of attachment. Arg(Nω,Nω'-propylene) = N[C@@H](CCCNC1=NCCCN1)C(=O)O; Phe(4-CF3) = N[C@@H](Cc1ccc(C(F)(F)F)cc1)C(=O)O; dPro(cis-4-NH2) = N[C@H]1CN[C@@H](C(=O)O)C1; X4 = Cn1ccnc1CNCCC[C@H](N[*:1])C(=O)[*:2]; dPro(4S-NH2) = N[C@@H]1CN[C@@H](C(=O)O)C1; Pro(4S-NH2) = N[C@@H]1CN[C@H](C(=O)O)C1; 1Nal = N[C@@H](Cc1cccc2ccccc12)C(=O)O; X2 = O=C([C@H](Cn1ncnn1)N[*:1])[*:2]; cisHyp = O=C(O)[C@@H]1C[C@H](O)CN1; Tic = O=C(O)[C@@H]1Cc2ccccc2CN1; aThr = C[C@H](O)[C@H](N)C(=O)O; Agb = N=C(N)NCC[C@H](N)C(=O)O; dPip = O=C(O)[C@H]1CCCCN1; Nle = CCCC[C@H](N)C(=O)O; Dab = NCC[C@H](N)C(=O)O; Abu = CC[C@H](N)C(=O)O; Bn = c1ccc(C*)cc1

Target: T1, CXCR7 (Homo sapiens, UniProt P25106)
T1 construct: host or cells: CHO (PathHunter CHO-CXCR7 β-arrestin cells)
T1 sequence (P25106 whole entry): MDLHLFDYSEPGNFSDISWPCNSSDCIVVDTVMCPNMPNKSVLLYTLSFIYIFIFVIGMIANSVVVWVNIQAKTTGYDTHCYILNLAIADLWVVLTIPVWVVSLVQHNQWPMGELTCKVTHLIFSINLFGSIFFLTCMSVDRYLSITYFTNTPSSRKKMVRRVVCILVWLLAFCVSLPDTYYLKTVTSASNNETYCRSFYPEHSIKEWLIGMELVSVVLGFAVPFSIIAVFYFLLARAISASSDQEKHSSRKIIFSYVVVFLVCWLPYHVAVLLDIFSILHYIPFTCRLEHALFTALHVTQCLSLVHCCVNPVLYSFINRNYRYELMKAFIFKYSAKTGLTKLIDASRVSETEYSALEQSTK
Experiment: CXCR7 β-arrestin recruitment assay (PathHunter CHO-CXCR7, DiscoverX), agonistic assay
Assay type: cell-based
Conditions: agonistic assay; CHO CXCR7 β-arrestin cells; 90 min at 37° C.; chemiluminescence; read-out: β-Arrestin EC50
Description: Lyophilized peptides were weighed on a Microbalance (Mettler MX5) and dissolved in DMSO to a final concentration of 10 mM unless otherwise stated. Stock solutions were kept at +4° C., and protected from light.
2.2 CXCR7 β-Arrestin Recruitment Assay
The PathHunter CHO-CXCR7 (DiscoverX) assay was performed according to the manufacturer's protocol. In brief, CHO CXCR7 β-arrestin cells were seeded at a density of 5000 cells per well in 40 μl of F12 medium in black 96-half volume well culture plates and incubated overnight at 37° C. in a humidified atmosphere with 5% CO2. The next day, serial dilutions of PEM compounds have been prepared in DMSO and subsequently diluted in HBSS buffer containing 0.1% BSA.
For agonistic assay, 10 μl of compound solution or a solution of stromal cell-derived factor-1 (SDF-1) as positive control was added to the cells with a final DMSO concentration of 1% (v/v). The plate was incubated for 90 min at 37° C. in 5% CO2 incubator with gentle shaking (300 rpm) before addition of 40 μl of detection reagent per well. Reaction was developed for 90 min at room temperature in the dark with shaking, and chemiluminescence was measured with a Topcount (Perkin Elmer) luminescence counter.

SMILES	EC50
CC[C@H](C)[C@@H]1NC(=O)[C@H]([C@@H](C)O)NC(=O)[C@H]2CCCCN2C(=O)[C@H](Cc2c[nH]c3ccccc23)NC(=O)[C@H](CCCNC(=N)N)NC(=O)[C@@H](CCCNC(=N)N)NC1=O [compound 14, cyclo(-Ile-^DArg-Arg-Trp-^DPip-Thr-)] (cyclo(I[dR]RW[dPip]T))	0.1 nM
CC[C@H](C)[C@@H]1NC(=O)[C@H]([C@H](C)O)NC(=O)[C@H]2CCCN2C(=O)[C@H](Cc2c[nH]c3ccccc23)NC(=O)[C@H](CCCNC(=N)N)NC(=O)[C@@H](CCCNC(=N)N)NC1=O [compound 9, cyclo(-Ile-^DArg-Arg-Trp-^DPro-alloThr-)] (cyclo(I[dR]RW[dP][aThr]))	292 ± 101 nM
CC[C@H](C)[C@@H]1NC(=O)[C@H]([C@@H](C)O)NC(=O)[C@H]2CCCN2C(=O)[C@H](Cc2c[nH]c3ccccc23)NC(=O)[C@H](CCCNC(=N)N)NC(=O)[C@@H](Cc2c[nH]cn2)NC1=O [compound 12, cyclo(-Ile-^DHis-Arg-Trp-^DPro-Thr-)] (cyclo(I[dH]RW[dP]T))	546 ± 241 nM
CC[C@H](C)[C@@H]1NC(=O)[C@H]([C@@H](C)O)NC(=O)[C@H]2CCCN2C(=O)[C@H](Cc2cccc3ccccc23)NC(=O)[C@H](CCCNC(=N)N)NC(=O)[C@@H](CCCNC(=N)N)NC1=O [compound 16, cyclo(-Ile-^DArg-Arg-1Nal-^DPro-Thr-)] (cyclo([1Nal][dP]TI[dR]R))	17.9 ± 2.6 nM
C[C@@H](O)[C@@H]1NC(=O)[C@H]([C@@H](C)O)NC(=O)[C@H]2CCCN2C(=O)[C@H](CCCNC(=N)N)NC(=O)[C@H](Cc2c[nH]c3ccccc23)NC(=O)[C@@H](CCCNC(=N)N)NC1=O [compound 19, cyclo(-Thr-^DArg-Trp-Arg-^DPro-Thr-)] (cyclo(R[dP]TT[dR]W))	17.2 ± 18.9 nM
N[C@@H]1C[C@@H]2C(=O)N3Cc4ccccc4C[C@H]3C(=O)N[C@@H](Cc3c[nH]c4ccccc34)C(=O)N[C@H](Cc3ccccc3)C(=O)N[C@@H](Cc3c[nH]c4ccccc34)C(=O)N[C@@H](CCCNC3=NCCCN3)C(=O)N2C1 [compound 80, cyclo(-Trp-^DPhe-Trp-Orn(A56)-^DPro((4R)NH2)-Tic-)] (cyclo([Tic]W[dF]W[Arg(Nω,Nω'-propylene)][dPro(cis-4-NH2)]))	33.4 ± 0.8 nM
CC[C@H](C)[C@@H]1NC(=O)[C@H]([C@@H](C)O)NC(=O)[C@H]2CCCN2C(=O)[C@H](Cc2c[nH]c3ccccc23)NC(=O)[C@H](CCN)NC(=O)[C@@H](CCCNC(=N)N)NC1=O [Ex. 4, cyclo(-Ile-^DArg-Dab-Trp-^DPro-Thr-)] (cyclo([Dab]W[dP]TI[dR]))	87 ± 84.1 nM
CC[C@H](C)[C@@H]1NC(=O)[C@H]([C@@H](C)O)NC(=O)[C@H]2CCCN2C(=O)[C@H](Cc2ccc(C(F)(F)F)cc2)NC(=O)[C@H](CCCNC(=N)N)NC(=O)[C@@H](CCCNC(=N)N)NC1=O [Ex. 72, cyclo(-Ile-^DArg-Arg-Phe(4CF3)-^DPro-Thr-)] (cyclo(I[dR]R[Phe(4-CF3)][dP]T))	4.5 ± 1.1 nM
CC[C@H](C)[C@@H]1NC(=O)[C@H]([C@@H](C)O)NC(=O)[C@H]2CCCN2C(=O)[C@H](Cc2c[nH]c3ccccc23)NC(=O)[C@H](CCNC(=N)N)NC(=O)[C@@H](CCCNC(=N)N)NC1=O [Ex. 24, cyclo(-Ile-^DArg-Agb-Trp-^DPro-Thr-)] (cyclo([Agb]W[dP]TI[dR]))	22.3 ± 29.3 nM
NCCCC[C@@H]1NC(=O)[C@H](Cc2c[nH]c3ccccc23)NC(=O)[C@@H](Cc2ccccc2)NC(=O)[C@H](Cc2c[nH]c3ccccc23)NC(=O)[C@@H]2Cc3ccccc3CN2C(=O)[C@H]2C[C@@H](N)CN2C1=O [compound 31, cyclo(-Trp-^DPhe-Trp-Lys-^DPro((4R)NH2)-Tic-)] (cyclo(K[dPro(cis-4-NH2)][Tic]W[dF]W))	138 ± 115 nM
Cn1ccnc1CNCCC[C@@H]1NC(=O)[C@H](Cc2c[nH]c3ccccc23)NC(=O)[C@@H](Cc2ccccc2)NC(=O)[C@H](Cc2c[nH]c3ccccc23)NC(=O)[C@@H]2Cc3ccccc3CN2C(=O)[C@H]2C[C@@H](N)CN2C1=O [compound 78, cyclo(-Trp-^DPhe-Trp-Orn(Ar7)-^DPro((4R)NH2)-Tic-)] (cyclo([Tic]W[dF]W[X4][dPro(cis-4-NH2)]))	145 ± 10.9 nM
NCC[C@@H]1NC(=O)[C@H](Cc2c[nH]c3ccccc23)NC(=O)[C@@H](Cc2ccccc2)NC(=O)[C@H](Cc2c[nH]c3ccccc23)NC(=O)[C@@H]2Cc3ccccc3CN2C(=O)[C@H]2C[C@@H](N)CN2C1=O [compound 30, cyclo(-Trp-^DPhe-Trp-Dab-^DPro((4R)NH2)-Tic-)] (cyclo([Dab][dPro(cis-4-NH2)][Tic]W[dF]W))	13.6 ± 5 nM

Further lines, results first:

EC50	SMILES
2.8 ± 1 nM	CCCC[C@@H]1NC(=O)[C@H]([C@@H](C)O)NC(=O)[C@H]2CCCN2C(=O)[C@H](Cc2c[nH]c3ccccc23)NC(=O)[C@H](CCCNC(=N)N)NC(=O)[C@@H](CCCNC(=N)N)NC1=O [compound 61, cyclo(-Nle-^DArg-Arg-Trp-^DPro-Thr-)] (cyclo([Nle][dR]RW[dP]T))
20.9 ± 27.3 nM	N=C(N)NCCC[C@@H]1NC(=O)[C@H](Cc2c[nH]c3ccccc23)NC(=O)[C@@H](Cc2ccccc2)NC(=O)[C@H](Cc2ccc(O)cc2)NC(=O)[C@@H]2Cc3ccccc3CN2C(=O)[C@H]2C[C@@H](N)CN2C1=O [compound 28, cyclo(-Tyr-^DPhe-Trp-Arg-^DPro((4R)NH2)-Tic-)] (cyclo(R[dPro(cis-4-NH2)][Tic]Y[dF]W))
36.9 ± 14 nM	N=C(N)NCCC[C@@H]1NC(=O)[C@H](Cc2c[nH]c3ccccc23)NC(=O)[C@@H](Cc2ccccc2)NC(=O)[C@H](Cc2c[nH]c3ccccc23)NC(=O)[C@@H]2C[C@H](N)CN2C(=O)[C@H]2CCCN2C1=O [compound 44, cyclo(-Trp-^DPhe-Trp-Arg-^DPro-Pro((4S)NH2)—)] (cyclo(R[dP][Pro(4S-NH2)]W[dF]W))
17.5 ± 12.2 nM	N=C(N)NCCC[C@@H]1NC(=O)[C@H](Cc2c[nH]c3ccccc23)NC(=O)[C@@H](Cc2ccccc2)NC(=O)[C@H](Cc2c[nH]c3ccccc23)NC(=O)[C@@H]2Cc3ccccc3CN2C(=O)[C@H]2C[C@H](N)CN2C1=O [Ex. 25, cyclo(-Trp-^DPhe-Trp-Arg-^DPro((4S)NH2)-Tic-)] (cyclo(R[dPro(4S-NH2)][Tic]W[dF]W))
76.9 ± 24.7 nM	N=C(N)NCCC[C@@H]1NC(=O)[C@@H]2C[C@H](OCc3ccccc3)CN2C(=O)[C@H]2CCCN2C(=O)[C@H](CCCNC(=N)N)NC(=O)[C@H](Cc2c[nH]c3ccccc23)NC(=O)[C@@H](Cc2ccccc2)NC1=O [Ex. 48, cyclo(-Arg-^DPhe-Trp-Arg-^DPro-(4S)-Hyp(Bn)-)] (cyclo(R[dF]WR[dP][cisHyp](Bn)))
28.1 ± 5.1 nM	N=C(N)NCCC[C@@H]1NC(=O)[C@H](Cc2c[nH]c3ccccc23)NC(=O)[C@@H](Cc2ccccc2)NC(=O)[C@H](Cn2ncnn2)NC(=O)[C@@H]2Cc3ccccc3CN2C(=O)[C@H]2C[C@@H](N)CN2C1=O [compound 75, cyclo(-Ala(Tet)-^DPhe-Trp-Arg-^DPro((4R)NH2)-Tic-)] (cyclo(R[dPro(cis-4-NH2)][Tic][X2][dF]W))
28.5 ± 12.6 nM	C[C@@H](O)[C@@H]1NC(=O)[C@H]2CCCN2C(=O)[C@H](Cc2c[nH]c3ccccc23)NC(=O)[C@H](CCCNC(=N)N)NC(=O)[C@@H](CCCNC(=N)N)NC(=O)[C@H](Cc2cccc3ccccc23)NC1=O [Ex. 10, cyclo(-1Nal-^DArg-Arg-Trp-^DPro-Thr-)] (cyclo([1Nal][dR]RW[dP]T))
330 ± 93.2 nM	CC[C@@H]1NC(=O)[C@H]([C@@H](C)O)NC(=O)[C@H]2CCCN2C(=O)[C@H](Cc2c[nH]c3ccccc23)NC(=O)[C@H](CCCNC(=N)N)NC(=O)[C@@H](CCCNC(=N)N)NC1=O [compound 58, cyclo(-Abu-^DArg-Arg-Trp-^DPro-Thr-)] (cyclo([Abu][dR]RW[dP]T))
